Experimental data from patent US20240190856A1, “MELANOCORTIN-4 RECEPTOR AGONIST” (LG CHEM, LTD., priority 2021, published 2024).
Counter-ions that a name gives are not always drawn.

biological target: MC4R (Homo sapiens, UniProt P32245); assay: β-arrestin assay (Pathhunter eXpress β-arrestin U2OS cell line); format: cell-based; parameters: expressed in transfected cells; host or cells: U2OS (Pathhunter eXpress β-arrestin cell line); conditions: U2OS cells, PK-tagged MC4R and EA-tagged β-arrestin, 37° C. for 90 minutes
Sequence (P32245 whole entry, species assumed): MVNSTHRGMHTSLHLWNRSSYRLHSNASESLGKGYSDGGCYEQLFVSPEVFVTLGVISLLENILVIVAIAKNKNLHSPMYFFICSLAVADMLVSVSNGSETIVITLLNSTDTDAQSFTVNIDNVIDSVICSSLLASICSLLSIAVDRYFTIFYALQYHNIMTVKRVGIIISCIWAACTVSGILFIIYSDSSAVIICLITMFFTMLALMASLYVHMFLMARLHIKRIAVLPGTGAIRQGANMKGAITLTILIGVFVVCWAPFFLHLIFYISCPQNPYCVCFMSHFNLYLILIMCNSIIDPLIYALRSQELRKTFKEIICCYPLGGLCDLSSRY
Sequence (P32121 whole entry partner, species assumed): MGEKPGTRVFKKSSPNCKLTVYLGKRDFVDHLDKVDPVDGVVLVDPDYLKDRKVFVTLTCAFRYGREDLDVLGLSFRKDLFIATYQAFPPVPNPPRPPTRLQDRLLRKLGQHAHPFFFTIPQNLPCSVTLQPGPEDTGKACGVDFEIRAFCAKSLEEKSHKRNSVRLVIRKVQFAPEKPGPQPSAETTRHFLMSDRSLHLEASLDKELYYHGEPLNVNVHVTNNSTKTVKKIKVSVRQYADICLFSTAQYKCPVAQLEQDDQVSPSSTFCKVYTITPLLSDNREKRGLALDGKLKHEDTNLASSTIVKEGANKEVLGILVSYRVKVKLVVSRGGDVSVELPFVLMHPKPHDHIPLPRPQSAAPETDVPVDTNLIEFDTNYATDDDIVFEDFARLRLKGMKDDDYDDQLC
Excerpt: The melanocortin receptor is a type of G-protein coupled receptor (GPCR) and regulates various physiological responses by transducing signals from many neurotransmitters. When GPCR is phosphorylated, β-arrestin is bound to the phosphorylated part of the receptor and plays an important role in activating various signaling pathways in cells through interaction with other proteins. It is known that, when the melanocortin receptor interacts with an agonist, β-arrestin is mobilized and is involved in the β-arrestin-mediated signaling pathway. Therefore, the activity of the melanocortin receptor can be evaluated through the measurement of β-arrestin.
A Pathhunter eXpress β-arrestin cell line (U2OS cell line) in which Prolink (PK)-tagged MC1R, MC3R, MC4R, MC5R and Enzyme acceptor (EA)-tagged β-arrestin were expressed together was established. When the MCR-PK portion of this cell line is activated, β-arrestin-EA is mobilized, and enzyme acceptor (EA) and Prolink (PK), which are the β-galactosidase enzyme fragments, interact. The activated enzyme hydrolyzes the substrate by β-galactosidase activity to produce a chemiluminescent signal, so that the activity can be measured. After the Pathhunter eXpress β-arrestin cell line (U2OS cell line) was incubated, the cells were inoculated into each well of the cell culture plate and incubated for 48 hours in a 37° C. incubator in the presence of 5% CO2. After the incubation, 5 μl of the sample diluted 5 times with buffer was added, the vehicle concentration was set to 1%, and the MC4R agonist compound diluted at each step concentration was added, followed by reaction at 37° C. for 90 minutes. The activity (%) of each agonist compound is expressed as 100% ×(average RLU value of sample−average RLU value of vehicle control)/(average maximum value of control ligand−average RLU value of vehicle control), and the value was analyzed by CBIS data analysis suite (ChemInnovation, CA).

SMILES	EC50
CC(C)(C)C(=O)N([C@H]1C[C@@H](C(=O)N2CCOCC2)N(C(=O)[C@@H]2CN(C(C)(C)C)C[C@H]2c2ccc(F)cc2F)C1)[C@H]1CC[C@@H](C)CC1 [Example 1, N-((3S,5S)-1-((3S,4R)-1-(tert-butyl)-4-(2,4-difluorophenyl)pyrrolidine-3-carbonyl)-5-(morpholine-4-carbonyl)pyrrolidin-3-yl)-N-((1s,4R)-4-methylcyclohexyl)pivalamide hydrochloride]	8.02 nM
CC(C)C(=O)N([C@H]1C[C@@H](C(=O)N2CCOCC2)N(C(=O)[C@@H]2CN(C(C)(C)C)C[C@H]2c2ccc(F)cc2F)C1)[C@H]1CC[C@@H](C)CC1 [Example 2, N-((3S,5S)-1-((3S,4R)-1-(tert-butyl)-4-(2,4-difluorophenyl)pyrrolidine-3-carbonyl)-5-(morpholine-4-carbonyl)pyrrolidin-3-yl)-N-((1s,4R)-4-methylcyclohexyl)isobutyramide hydrochloride]	15 nM
CC(C)C(=O)N([C@H]1C[C@@H](C(=O)N2CCOCC2)N(C(=O)[C@@H]2CN(C(C)(C)C)C[C@H]2c2ccc(Cl)cc2F)C1)[C@H]1CC[C@@H](C)CC1 [Example 3, N-((3S,5S)-1-((3S,4R)-1-(tert-butyl)-4-(4-chloro-2-fluorophenyl)pyrrolidine-3-carbonyl)-5-(morpholine-4-carbonyl)pyrrolidin-3-yl)-N-((1s,4R)-4-methylcyclohexyl)isobutyramide hydrochloride]	4.5 nM
CC(C)(C)C(=O)N([C@H]1C[C@@H](C(=O)N2CCOCC2)N(C(=O)[C@@H]2CN(C(C)(C)C)C[C@H]2c2ccc(Cl)cc2F)C1)[C@H]1CC[C@@H](C)CC1 [Example 4, N-((3S,5S)-1-((3S,4R)-1-(tert-butyl)-4-(4-chloro-2-fluorophenyl)pyrrolidine-3-carbonyl)-5-(morpholine-4-carbonyl)pyrrolidin-3-yl)-N-((1s,4R)-4-methylcyclohexyl)pivalamide hydrochloride]	4.2 nM
CC1(C)CCC(N(C(=O)C(C)(C)C)[C@H]2C[C@@H](C(=O)N3CCOCC3)N(C(=O)[C@@H]3CN(C(C)(C)C)C[C@H]3c3ccc(Cl)cc3)C2)CC1 [Example 6, N-((3S,5S)-1-((3S,4R)-1-(tert-butyl)-4-(4-chlorophenyl)pyrrolidine-3-carbonyl)-5-(morpholine-4-carbonyl)pyrrolidin-3-yl)-N-(4,4-dimethylcyclohexyl)pivalamide hydrochloride]	13 nM
